This passage reports Idil/I results from paper PMC3931646, “A Cyclic Nucleotide-Gated Channel Mutation Associated with Canine Daylight Blindness Provides Insight into a Role for the S2 Segment Tri-Asp motif in Channel Biogenesis” (PLoS ONE, 2014).

One assay deals with T1, cA3+ hB3 (Canis lupus familiaris; Homo sapiens, UniProt A0A068LEV2+Q9NQW8).
T1 construct: gene CNGA3; inter-species heterotetramer: canine CNGA3 with C-terminal YFP co-expressed with untagged human CNGB3 (pcDNA3.1) in tSA201 cells; stoichiometry debated (2:2 or 3:1)
T1 sequence (A0A068LEV2 1-708): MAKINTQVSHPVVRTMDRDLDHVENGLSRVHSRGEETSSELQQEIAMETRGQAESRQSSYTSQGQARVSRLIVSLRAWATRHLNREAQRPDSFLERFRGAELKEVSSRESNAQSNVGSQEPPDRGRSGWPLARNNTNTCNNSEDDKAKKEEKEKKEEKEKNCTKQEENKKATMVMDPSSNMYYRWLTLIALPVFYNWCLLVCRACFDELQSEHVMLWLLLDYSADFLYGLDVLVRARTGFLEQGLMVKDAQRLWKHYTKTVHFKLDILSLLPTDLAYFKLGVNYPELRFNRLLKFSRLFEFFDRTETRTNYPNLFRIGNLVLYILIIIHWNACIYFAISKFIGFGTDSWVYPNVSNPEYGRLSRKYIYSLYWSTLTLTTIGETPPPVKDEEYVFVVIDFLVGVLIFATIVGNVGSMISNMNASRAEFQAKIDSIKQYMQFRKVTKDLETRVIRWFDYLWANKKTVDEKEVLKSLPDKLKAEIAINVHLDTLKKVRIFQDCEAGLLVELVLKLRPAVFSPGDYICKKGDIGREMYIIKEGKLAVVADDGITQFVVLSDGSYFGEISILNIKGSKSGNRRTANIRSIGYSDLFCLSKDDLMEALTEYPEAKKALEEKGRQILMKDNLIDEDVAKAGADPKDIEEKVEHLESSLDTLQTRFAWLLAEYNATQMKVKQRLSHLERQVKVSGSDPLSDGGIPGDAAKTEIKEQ
T1 sequence (Q9NQW8 1-809): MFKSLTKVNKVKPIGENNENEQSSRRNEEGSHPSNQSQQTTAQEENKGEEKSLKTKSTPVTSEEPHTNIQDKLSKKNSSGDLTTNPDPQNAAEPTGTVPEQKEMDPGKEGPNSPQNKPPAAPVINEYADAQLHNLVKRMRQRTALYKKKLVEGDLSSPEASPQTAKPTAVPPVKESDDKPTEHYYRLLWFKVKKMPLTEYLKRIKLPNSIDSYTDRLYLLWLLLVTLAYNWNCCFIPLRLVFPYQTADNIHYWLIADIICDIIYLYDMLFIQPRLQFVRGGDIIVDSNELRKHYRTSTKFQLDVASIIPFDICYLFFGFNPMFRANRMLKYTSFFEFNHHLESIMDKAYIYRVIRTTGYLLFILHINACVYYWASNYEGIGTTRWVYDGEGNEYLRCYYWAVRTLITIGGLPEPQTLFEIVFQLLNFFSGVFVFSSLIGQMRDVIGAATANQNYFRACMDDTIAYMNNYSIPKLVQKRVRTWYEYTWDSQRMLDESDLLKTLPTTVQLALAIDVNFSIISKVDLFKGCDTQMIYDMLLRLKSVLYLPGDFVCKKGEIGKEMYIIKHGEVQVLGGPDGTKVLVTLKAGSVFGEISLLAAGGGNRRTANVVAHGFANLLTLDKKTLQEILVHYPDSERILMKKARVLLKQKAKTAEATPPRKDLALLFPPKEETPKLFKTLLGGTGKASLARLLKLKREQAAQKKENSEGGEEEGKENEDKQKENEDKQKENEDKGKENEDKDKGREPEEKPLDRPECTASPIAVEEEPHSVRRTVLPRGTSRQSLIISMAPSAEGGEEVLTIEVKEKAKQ
The experiment in a line: inside-out patch electrophysiology, current block. It is filed as biochemical. To be noted: 25 µM; channel block; 25 µM L-cis-diltiazem with 100 µM cGMP, -60 mV, 120 mM NaCl, EDTA/EGTA, pH 7.4, room temperature. An excerpt: inside-out patch electrophysiology, current block on cA3+ hB3

The target of the next assay is T2, cA3 (Canis lupus, UniProt A0A068LEV2).
T2 construct: gene CNGA3; full-length coding region cloned from canine retina, C-terminal YFP (pEYFP-N1, stop removed), tSA201 cells, homotetramer
T2 sequence (A0A068LEV2 1-708): T1 sequence (A0A068LEV2 1-708)
In words: inside-out patch electrophysiology, current block. In kind it is biochemical. To be noted: 25 µM; channel block; 25 µM L-cis-diltiazem with 100 µM cGMP, -60 mV, 120 mM NaCl, EDTA/EGTA, pH 7.4, room temperature. The source says:
inside-out patch electrophysiology, current block on cA3

In the case of `COc1ccc([C@H]2Sc3ccccc3N(CCN(C)C)C(=O)[C@H]2OC(C)=O)cc1` [L-cis-diltiazem], the results for the Idil/I on cA3+ hB3 and on cA3 were 0.40±0.02 and 0.79±0.05, respectively.
